Assay results published in PubChem BioAssay AID248 (DTP/NCI, 2004).
Where “and” joins values, the source holds several entries; their conditions need not be identical. Equal values may be shown once. Toxic doses and inconclusive results are not listed.

Test system: L1210 leukemia ip in BDF1 mice, survival T/C
Experiment: NCI In Vivo Anticancer Drug Screen. Data for tumor model L1210 Leukemia (intraperitoneal) in B6D2F1 (BDF1) mice
Conditions: endpoint: mean survival time, higher = longer survival
Outline: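 Transplanted-tumor mice were given test agent; controls received vehicle only. Survival readings from the two groups were divided (treated over control).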

[1] = dose: 25.0 mg/kg/injection, schedule: Q04DX003 (ip), vehicle: saline
[2] = dose: 50.0 mg/kg/injection, schedule: Q01DX009 (ip), vehicle: saline
[3] = dose: 100.0 mg/kg/injection, schedule: Q04DX003 (ip), vehicle: saline
[4] = dose: 100.0 mg/kg/injection, schedule: Q01DX009 (ip), vehicle: Klucel (hydroxypropylcellulose) (HPC)
[5] = dose: 200.0 mg/kg/injection, schedule: Q01DX009 (ip), vehicle: Klucel (hydroxypropylcellulose) (HPC)
[6] = dose: 100.0 mg/kg/injection, schedule: Q04DX002 (ip), vehicle: saline
[7] = dose: 200.0 mg/kg/injection, schedule: Q04DX002 (ip), vehicle: saline
[8] = dose: 200.0 mg/kg/injection, schedule: Q04DX003 (ip), vehicle: saline
[9] = dose: 400.0 mg/kg/injection, schedule: Q04DX002 (ip), vehicle: saline
[10] = dose: 400.0 mg/kg/injection, schedule: Q04DX003 (ip), vehicle: saline
[11] = dose: 100.0 mg/kg/injection, schedule: Q04DX003 (ip), vehicle: Klucel (hydroxypropylcellulose) (HPC)
[12] = dose: 200.0 mg/kg/injection, schedule: Q04DX003 (ip), vehicle: Klucel (hydroxypropylcellulose) (HPC)
[13] = dose: 400.0 mg/kg/injection, schedule: Q04DX003 (ip), vehicle: Klucel (hydroxypropylcellulose) (HPC)
[14] = dose: 200.0 mg/kg/injection, schedule: Q01DX009 (ip), vehicle: saline with Tween-80

## COC1OC(CO)C(NC(N)=O)C1O (centres undefined)
dose: 100.0 mg/kg/injection, schedule: Q04DX002 (ip), vehicle: Klucel (hydroxypropylcellulose) (HPC)
  T/C: 105 % of control
dose: 200.0 mg/kg/injection, schedule: Q04DX002 (ip), vehicle: Klucel (hydroxypropylcellulose) (HPC)
  T/C: 105 % of control
dose: 400.0 mg/kg/injection, schedule: Q04DX002 (ip), vehicle: Klucel (hydroxypropylcellulose) (HPC)
  T/C: 111 % of control

## CN(C)CCC1CCCCN1 (centres undefined)
dose: 25.0 mg/kg/injection, schedule: Q01DX009 (ip), vehicle: saline
  T/C: 95 % of control
[1]
  T/C: 103 % of control
[2]
  T/C: 95 % of control
dose: 50.0 mg/kg/injection, schedule: Q04DX003 (ip), vehicle: saline
  T/C: 101 % of control
dose: 100.0 mg/kg/injection, schedule: Q01DX009 (ip), vehicle: saline
  T/C: 104 % of control
[3]
  T/C: 99 % of control and 100 % of control

## COc1ccc(C)cc1NC(=O)c1c(Br)c(Br)c(Br)c(Br)c1C(=O)O
[4]
  T/C: 98 % of control
[5]
  T/C: 92 % of control

## CCC(NC(C)=O)C(=O)O (centres undefined)
[6]
  T/C: 101 % of control
[3]
  T/C: 104 % of control
[7]
  T/C: 90 % of control
[8]
  T/C: 96 % of control
[9]
  T/C: 116 % of control
[10]
  T/C: 95 % of control

## CCCCC(/C=C1/CCCCC1=O)CC (centres undefined)
[4]
  T/C: 97 % of control
[11]
  T/C: 92 % of control
[5]
  T/C: 97 % of control
[12]
  T/C: 103 % of control
[13]
  T/C: 97 % of control

## Cc1cc(C)c(C(=O)C=O)c(C)c1
dose: 50.0 mg/kg/injection, schedule: Q01DX009 (ip), vehicle: Klucel (hydroxypropylcellulose) (HPC)
  T/C: 101 % of control
[4]
  T/C: 100 % of control
[11]
  T/C: 104 % of control
[5]
  T/C: 95 % of control
[12]
  T/C: 107 % of control

## C#CC(O)(c1ccccc1)c1ccc(N2CCOCC2)cc1 (centres undefined)
[11]
  T/C: 96 % of control
[12]
  T/C: 96 % of control
[13]
  T/C: 96 % of control

## O=C1c2ccccc2C2(c3ccccc31)C(C(=O)c1ccccc1)C2C(=O)c1ccccc1 (centres undefined)
dose: 75.0 mg/kg/injection, schedule: Q01DX001 (ip), vehicle: carboxymethylcellulose (CMC)
  T/C: 94 % of control
dose: 150.0 mg/kg/injection, schedule: Q01DX001 (ip), vehicle: carboxymethylcellulose (CMC)
  T/C: 96 % of control
dose: 300.0 mg/kg/injection, schedule: Q01DX001 (ip), vehicle: carboxymethylcellulose (CMC)
  T/C: 91 % of control

## COc1ccc2nc3cc(Cl)ccc3c(Cl)c2c1
dose: 50.0 mg/kg/injection, schedule: Q04DX003 (ip), vehicle: carboxymethylcellulose (CMC)
  T/C: 87 % of control
dose: 100.0 mg/kg/injection, schedule: Q01DX001 (ip), vehicle: carboxymethylcellulose (CMC)
  T/C: 97 % of control
dose: 100.0 mg/kg/injection, schedule: Q04DX003 (ip), vehicle: carboxymethylcellulose (CMC)
  T/C: 92 % of control
dose: 200.0 mg/kg/injection, schedule: Q01DX001 (ip), vehicle: carboxymethylcellulose (CMC)
  T/C: 90 % of control
dose: 200.0 mg/kg/injection, schedule: Q04DX003 (ip), vehicle: carboxymethylcellulose (CMC)
  T/C: 91 % of control
dose: 400.0 mg/kg/injection, schedule: Q01DX001 (ip), vehicle: carboxymethylcellulose (CMC)
  T/C: 100 % of control

## CCCCCCCCCN1CCCC(C)C1 (centres undefined)
dose: 12.5 mg/kg/injection, schedule: Q04DX002 (ip), vehicle: Klucel (hydroxypropylcellulose) (HPC)
  T/C: 93 % of control
dose: 25.0 mg/kg/injection, schedule: Q04DX002 (ip), vehicle: Klucel (hydroxypropylcellulose) (HPC)
  T/C: 97 % of control
dose: 50.0 mg/kg/injection, schedule: Q04DX002 (ip), vehicle: Klucel (hydroxypropylcellulose) (HPC)
  T/C: 101 % of control

## C[P+](c1ccc(Cl)cc1)(c1ccc(Cl)cc1)c1ccc(Cl)cc1
dose: 6.25 mg/kg/injection, schedule: Q04DX003 (ip), vehicle: saline
  T/C: 114 % of control
dose: 12.5 mg/kg/injection, schedule: Q04DX003 (ip), vehicle: saline
  T/C: 109 % of control
[1]
  T/C: 102 % of control

## c1ccc(N2CCN(c3ccccc3)CC2)cc1
dose: 100.0 mg/kg/injection, schedule: Q01DX009 (ip), vehicle: saline with Tween-80
  T/C: 98 % of control
[14]
  T/C: 86 % of control

## CC1CNC(=O)C(=O)N1 (centres undefined)
[6]
  T/C: 98 % of control
[7]
  T/C: 102 % of control
[9]
  T/C: 94 % of control

## CC(=O)OC/C=C(\C)CCC1OC1(C)C (centres undefined)
dose: 100.0 mg/kg/injection, schedule: Q01DX001 (ip), vehicle: saline
  T/C: 120 % of control
dose: 100.0 mg/kg/injection, schedule: Q04DX003 (ip), vehicle: water
  T/C: 102 % of control
dose: 200.0 mg/kg/injection, schedule: Q01DX001 (ip), vehicle: saline
  T/C: 108 % of control
dose: 200.0 mg/kg/injection, schedule: Q04DX003 (ip), vehicle: water
  T/C: 112 % of control
dose: 400.0 mg/kg/injection, schedule: Q01DX001 (ip), vehicle: saline
  T/C: 114 % of control
dose: 400.0 mg/kg/injection, schedule: Q04DX003 (ip), vehicle: water
  T/C: 101 % of control

## O=C(O)c1ccccc1C(=O)c1ccccc1C(=O)O
dose: 100.0 mg/kg/injection, schedule: Q04DX003 (ip), vehicle: saline with Tween-80
  T/C: 102 % of control
dose: 200.0 mg/kg/injection, schedule: Q04DX003 (ip), vehicle: saline with Tween-80
  T/C: 98 % of control
dose: 400.0 mg/kg/injection, schedule: Q04DX003 (ip), vehicle: saline with Tween-80
  T/C: 102 % of control

## C=CCN=C(N)C(N)=NCC=C
[3]
  T/C: 96 % of control
[8]
  T/C: 101 % of control
[10]
  T/C: 103 % of control

## CN(Cc1ccccc1)/N=N/c1nc[nH]c1C(N)=O
dose: 4.0 mg/kg/injection, schedule: Q01DX009 (ip), vehicle: saline with Tween-80
  T/C: 98 % of control
dose: 8.0 mg/kg/injection, schedule: Q01DX009 (ip), vehicle: saline with Tween-80
  T/C: 103 % of control
dose: 22.0 mg/kg/injection, schedule: Q01DX009 (ip), vehicle: saline with Tween-80
  T/C: 98 % of control
dose: 25.0 mg/kg/injection, schedule: Q01DX009 (ip), vehicle: water
  T/C: 122 % of control
dose: 35.0 mg/kg/injection, schedule: Q01DX009 (ip), vehicle: saline with Tween-80
  T/C: 117 % of control
dose: 50.0 mg/kg/injection, schedule: Q01DX001 (ip), vehicle: water
  T/C: 102 % of control
[2]
  T/C: 124 % of control
dose: 50.0 mg/kg/injection, schedule: Q04DX003 (ip), vehicle: water
  T/C: 105 % of control
dose: 100.0 mg/kg/injection, schedule: Q01DX001 (ip), vehicle: other
  T/C: 104 % of control
dose: 100.0 mg/kg/injection, schedule: Q01DX001 (ip), vehicle: water
  T/C: 108 % of control
dose: 100.0 mg/kg/injection, schedule: Q01DX009 (ip), vehicle: acetone
  T/C: 181 % of control
dose: 100.0 mg/kg/injection, schedule: Q01DX009 (ip), vehicle: water
  T/C: 171 % of control and 175 % of control
dose: 100.0 mg/kg/injection, schedule: Q04DX003 (ip), vehicle: other
  T/C: 102 % of control
dose: 200.0 mg/kg/injection, schedule: Q01DX001 (ip), vehicle: other
  T/C: 108 % of control
dose: 200.0 mg/kg/injection, schedule: Q01DX001 (ip), vehicle: water
  T/C: 113 % of control
dose: 200.0 mg/kg/injection, schedule: Q01DX009 (ip), vehicle: acetone
  T/C: 150 % of control
[14]
  T/C: 176 % of control
dose: 200.0 mg/kg/injection, schedule: Q01DX009 (ip), vehicle: water
  T/C: 106 % of control and 113 % of control
dose: 200.0 mg/kg/injection, schedule: Q04DX003 (ip), vehicle: other
  T/C: 122 % of control
dose: 400.0 mg/kg/injection, schedule: Q01DX001 (ip), vehicle: other
  T/C: 112 % of control
dose: 400.0 mg/kg/injection, schedule: Q01DX009 (ip), vehicle: acetone
  T/C: 87 % of control
dose: 400.0 mg/kg/injection, schedule: Q04DX003 (ip), vehicle: other
  T/C: 155 % of control
